Assay results published in ChEMBL document CHEMBL6083284, “Identification of TAK-756, A Potent TAK1 Inhibitor for the Treatment of Osteoarthritis through Intra-Articular Administration” (J Med Chem, 2024).
Converted amounts (≈) assume the structure as drawn.

What was measured:
[1] = Inhibition of MMP3 production in human C20/A4 cells by Nano-Glo HiBit assay; details: C20/A4, read-out: pEC50 (converted)
[2] = Inhibition of IL-6 production in human SW982 cells by Nano-Glo HiBit assay; details: SW982, read-out: pEC50 (converted)
[3] = Partition coefficient, logP of compound in octanol/water; format: physicochemical
[4] = Thermodynamic solubility in simulated synovial fluid containing PBS/BSA incubated for 20 hrs by HPLC-HRMS analysis; format: physicochemical; details: read-out: Therm_solubility
[5] = Drug concentration in synovial fluid of Sprague-Dawley rat at 250 ug, IART measured for 168 hrs by LC-MS/MS analysis; format: ADME, tissue-based; details: for concentration at 168 h: Sprague-Dawley, synovial fluid, 250 ug, read-out: Ct
[6] = Free drug concentration in synovial fluid of Sprague-Dawley rat at 250 ug, IART measured for 168 hrs by LC-MS/MS analysis; format: ADME, tissue-based; details: in vivo, other, dose 250 µg
[7] = Terminal half life in plasma of Sprague-Dawley rat at 250 ug, IART measured for 168 hrs by LC-MS/MS analysis; format: ADME, cell-free; details: dose 250 µg, read-out: beta t1/2 (converted)
[8] = Protein binding in bovine synovial fluid assessed as unbound fraction at 5 uM incubated for 4 hrs by rapid equilibrium dialysis; format: ADME, tissue-based, Bos taurus; details: cattle
[9] = Solubility in simulated synovial fluid; format: physicochemical
[10] = Lipophilicity, logD of compound; format: physicochemical; details: octanol/water
[11] = biological target: T1, Interleukin-1 receptor-associated kinase 4 (Homo sapiens) (UniProt Q9NWZ3); assay: Inhibition of IRAK4 (unknown origin) at 1 uM relative to control
T1 sequence (whole entry): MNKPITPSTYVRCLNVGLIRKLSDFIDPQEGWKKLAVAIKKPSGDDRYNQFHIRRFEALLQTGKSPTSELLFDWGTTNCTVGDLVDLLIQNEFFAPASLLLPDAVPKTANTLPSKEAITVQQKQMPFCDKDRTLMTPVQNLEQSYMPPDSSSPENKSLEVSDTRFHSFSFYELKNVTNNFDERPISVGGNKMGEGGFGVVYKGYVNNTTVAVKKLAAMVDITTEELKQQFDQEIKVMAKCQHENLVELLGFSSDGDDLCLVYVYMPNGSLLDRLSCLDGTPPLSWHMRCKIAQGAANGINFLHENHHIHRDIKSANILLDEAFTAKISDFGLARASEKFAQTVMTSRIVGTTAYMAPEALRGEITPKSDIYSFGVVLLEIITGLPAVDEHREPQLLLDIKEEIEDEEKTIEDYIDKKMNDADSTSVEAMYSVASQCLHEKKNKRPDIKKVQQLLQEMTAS

[12] = biological target: Interleukin-1 receptor-associated kinase 1 (Homo sapiens) (UniProt P51617); assay: Inhibition of IRAK1 (unknown origin) at 1 uM relative to control
[13] = biological target: TRAF2 and NCK-interacting protein kinase (Homo sapiens) (UniProt Q9UKE5); assay: Inhibition of TNIK (unknown origin) at 1 uM relative to control
[14] = biological target: Misshapen-like kinase 1 (Homo sapiens) (UniProt Q8N4C8); assay: Inhibition of MINK1 (unknown origin) at 1 uM relative to control
[15] = Drug concentration in tibia of Sprague-Dawley rat assessed as accumulation in tibial plateau at 250 ug, IART measured for 168 hrs by LC-MS/MS analysis; format: ADME, tissue-based; details: dose 250 µg, read-out: Drug uptake
[16] = Drug concentration in tibia of Sprague-Dawley rat assessed as accumulation in synovial membrane of tibial plateau at 250 ug, IART measured for 168 hrs by LC-MS/MS analysis; format: ADME; details: dose 250 µg, read-out: Ct
[17] = biological target: Receptor-type tyrosine-protein kinase FLT3 (Homo sapiens) (UniProt P36888); assay: Inhibition of FLT3 (unknown origin) at 1 uM relative to control
[18] = biological target: Mitogen-activated protein kinase kinase kinase kinase 4 (Homo sapiens) (UniProt O95819); assay: Inhibition of MAP4K4 (unknown origin) at 1 uM relative to control
[19] = biological target: Dual specificity protein kinase CLK4 (Homo sapiens) (UniProt Q9HAZ1); assay: Inhibition of CLK4 (unknown origin) at 1 uM relative to control
[20] = Drug uptake in synovial fluid of Lewis/Or1Rj naive rat model of joint inflammation administered intra-articularly pretreated with compound 72 hrs prior to LPS/MSU treatment measured after 4 hrs; format: ADME; details: in vivo, other, 76 h, route iart, dose < 240 µg
[21] = Drug concentration in Lewis/Or1Rj naive rat model of joint inflammation at >60 ug, IART pretreated with compound 72 hrs prior to LPS/MSU treatment measured after 4 hrs; format: ADME; details: in vivo, dose > 60 µg, read-out: Ct
[22] = Unbound drug concentration in Lewis/Or1Rj naive rat model of joint inflammation at >60 ug, IART pretreated with compound 72 hrs prior to LPS/MSU treatment measured after 4 hrs; format: ADME; details: in vivo, other, 76 h, dose > 60 µg
[23] = tested on: Rattus norvegicus; assay: Downregulation of Cxcl1 mRNA level in meniscus of Lewis/Or1Rj naive rat model of joint inflammation administered intra-articularly pretreated with compound 72 hrs prior to LPS/MSU treatment measured after 4 hrs by qPCR analysis; format: functional, organism-based; details: dose <= 240.0 µg, route iart, time 76.0 hrs
[24] = tested on: Rattus norvegicus; assay: Downregulation of Il6 mRNA level in meniscus of Lewis/Or1Rj naive rat model of joint inflammation administered intra-articularly pretreated with compound 72 hrs prior to LPS/MSU treatment measured after 4 hrs by qPCR analysis; format: functional, organism-based; details: dose <= 240.0 µg, route iart, time 76.0 hrs
[25] = species on record: Rattus norvegicus; assay: Effect on Mmp3 mRNA level in meniscus of Lewis/Or1Rj naive rat model of joint inflammation >=30 ug, IART pretreated with compound 72 hrs prior to LPS/MSU treatment measured after 4 hrs by qPCR analysis; format: functional, organism-based; details: dose >= 30.0 µg, time 76.0 hrs
[26] = tested on: Mitogen-activated protein kinase kinase kinase 7 (TAK1, Rattus norvegicus); assay: In vivo inhibition of TAK1 in Lewis/Or1Rj naive rat model of joint inflammation assessed as reduction in CXCL1 level administered intra-articularly pretreated with compound 72 hrs prior to LPS/MSU treatment measured after 4 hrs; details: dose <= 240.0 µg, route iart, time 76.0 hrs
[27] = tested on: Mitogen-activated protein kinase kinase kinase 7 (TAK1, Rattus norvegicus); assay: In vivo inhibition of TAK1 in Lewis/Or1Rj naive rat model of joint inflammation assessed as reduction in CXCL1 level at 15 ug, IART pretreated with compound 72 hrs prior to LPS/MSU treatment measured after 4 hrs relative to control; details: dose 15.0 µg, time 76.0 hrs
[28] = Toxicity in Sprague-Dawley rat assessed as drug tolerance at 50 ug, IART measured for 168 hrs by LC-MS/MS analysis; details: in vivo, other, dose 50 µg
[29] = Drug concentration in plasma of Sprague-Dawley rat at 50 ug, IART measured for 168 hrs by LC-MS/MS analysis; format: ADME, cell-free; details: dose 50 µg
[30] = Drug concentration in plasma of Sprague-Dawley rat at 50 ug, IART measured after 24 hrs by LC-MS/MS analysis; format: ADME, cell-free; details: dose 50 µg
[31] = Drug uptake in tibia of Sprague-Dawley rat assessed as accumulation at synovial membrane of tibial plateau at 50 ug, IART measured for 168 hrs by LC-MS/MS analysis; format: ADME, tissue-based; details: in vivo, other, dose 50 µg
[32] = Drug uptake in synovial fluid of Sprague-Dawley rat at 50 ug, IART measured after 72 hrs by LC-MS/MS analysis; format: ADME, tissue-based; details: in vivo, other, dose 50 µg
[33] = Drug uptake in tibia of Sprague-Dawley rat assessed as accumulation at cartilage tissue of tibial plateau at 50 ug, IART measured for 168 hrs by LC-MS/MS analysis; format: ADME, tissue-based; details: in vivo, other, dose 50 µg

Chain of Interleukin-1 receptor-associated kinase 1 (Homo sapiens) (P51617 whole entry, looked up): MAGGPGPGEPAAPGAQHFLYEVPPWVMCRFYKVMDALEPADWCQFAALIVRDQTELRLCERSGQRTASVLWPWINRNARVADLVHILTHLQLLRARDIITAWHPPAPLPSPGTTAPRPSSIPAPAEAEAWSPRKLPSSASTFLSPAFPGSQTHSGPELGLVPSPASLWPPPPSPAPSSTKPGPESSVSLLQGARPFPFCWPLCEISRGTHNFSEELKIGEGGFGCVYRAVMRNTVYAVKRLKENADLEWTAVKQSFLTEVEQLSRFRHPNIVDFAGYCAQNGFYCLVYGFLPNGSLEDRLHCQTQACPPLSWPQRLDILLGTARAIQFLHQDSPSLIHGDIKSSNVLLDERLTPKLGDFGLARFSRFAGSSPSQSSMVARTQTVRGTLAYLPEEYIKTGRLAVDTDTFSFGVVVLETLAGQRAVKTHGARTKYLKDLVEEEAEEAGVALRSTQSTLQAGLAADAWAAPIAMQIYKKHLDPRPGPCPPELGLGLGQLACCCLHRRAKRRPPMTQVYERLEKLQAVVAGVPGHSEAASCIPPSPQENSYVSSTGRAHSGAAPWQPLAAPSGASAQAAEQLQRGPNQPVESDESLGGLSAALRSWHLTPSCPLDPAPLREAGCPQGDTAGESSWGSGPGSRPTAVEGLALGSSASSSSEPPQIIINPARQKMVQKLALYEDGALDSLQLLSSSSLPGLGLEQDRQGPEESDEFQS
Chain of TRAF2 and NCK-interacting protein kinase (Homo sapiens) (Q9UKE5 whole entry, looked up): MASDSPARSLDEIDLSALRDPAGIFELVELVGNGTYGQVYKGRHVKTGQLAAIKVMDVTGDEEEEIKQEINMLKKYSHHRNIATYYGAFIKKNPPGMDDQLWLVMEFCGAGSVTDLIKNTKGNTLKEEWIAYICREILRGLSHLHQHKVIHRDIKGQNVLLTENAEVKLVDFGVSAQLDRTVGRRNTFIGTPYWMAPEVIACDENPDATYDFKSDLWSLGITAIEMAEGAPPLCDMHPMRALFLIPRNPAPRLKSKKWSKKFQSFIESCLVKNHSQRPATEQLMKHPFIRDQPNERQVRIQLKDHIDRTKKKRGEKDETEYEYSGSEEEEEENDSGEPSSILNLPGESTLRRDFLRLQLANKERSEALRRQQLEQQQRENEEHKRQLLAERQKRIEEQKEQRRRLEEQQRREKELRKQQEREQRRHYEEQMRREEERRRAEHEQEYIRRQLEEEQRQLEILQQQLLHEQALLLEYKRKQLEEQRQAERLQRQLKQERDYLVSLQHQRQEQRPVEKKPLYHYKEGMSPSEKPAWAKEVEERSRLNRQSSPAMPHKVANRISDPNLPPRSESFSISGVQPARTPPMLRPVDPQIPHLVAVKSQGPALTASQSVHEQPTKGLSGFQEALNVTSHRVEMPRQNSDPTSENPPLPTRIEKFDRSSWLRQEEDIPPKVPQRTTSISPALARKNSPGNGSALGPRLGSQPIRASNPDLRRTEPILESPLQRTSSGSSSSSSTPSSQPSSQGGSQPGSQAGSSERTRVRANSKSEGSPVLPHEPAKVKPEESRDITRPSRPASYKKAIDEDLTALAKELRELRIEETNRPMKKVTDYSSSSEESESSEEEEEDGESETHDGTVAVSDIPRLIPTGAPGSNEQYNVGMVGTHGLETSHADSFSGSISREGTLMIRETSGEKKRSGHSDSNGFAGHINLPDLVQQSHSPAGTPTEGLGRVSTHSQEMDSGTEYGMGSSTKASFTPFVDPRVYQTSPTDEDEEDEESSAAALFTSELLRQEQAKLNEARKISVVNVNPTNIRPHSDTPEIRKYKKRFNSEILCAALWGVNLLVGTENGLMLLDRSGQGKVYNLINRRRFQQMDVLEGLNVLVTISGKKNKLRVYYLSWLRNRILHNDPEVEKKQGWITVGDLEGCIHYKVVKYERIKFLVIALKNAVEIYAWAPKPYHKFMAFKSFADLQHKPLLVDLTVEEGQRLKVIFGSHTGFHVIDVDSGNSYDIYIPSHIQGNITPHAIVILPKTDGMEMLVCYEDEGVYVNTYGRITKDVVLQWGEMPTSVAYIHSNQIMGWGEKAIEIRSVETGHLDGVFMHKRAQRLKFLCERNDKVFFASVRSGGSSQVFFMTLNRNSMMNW
Chain of Misshapen-like kinase 1 (Homo sapiens) (Q8N4C8 whole entry, looked up): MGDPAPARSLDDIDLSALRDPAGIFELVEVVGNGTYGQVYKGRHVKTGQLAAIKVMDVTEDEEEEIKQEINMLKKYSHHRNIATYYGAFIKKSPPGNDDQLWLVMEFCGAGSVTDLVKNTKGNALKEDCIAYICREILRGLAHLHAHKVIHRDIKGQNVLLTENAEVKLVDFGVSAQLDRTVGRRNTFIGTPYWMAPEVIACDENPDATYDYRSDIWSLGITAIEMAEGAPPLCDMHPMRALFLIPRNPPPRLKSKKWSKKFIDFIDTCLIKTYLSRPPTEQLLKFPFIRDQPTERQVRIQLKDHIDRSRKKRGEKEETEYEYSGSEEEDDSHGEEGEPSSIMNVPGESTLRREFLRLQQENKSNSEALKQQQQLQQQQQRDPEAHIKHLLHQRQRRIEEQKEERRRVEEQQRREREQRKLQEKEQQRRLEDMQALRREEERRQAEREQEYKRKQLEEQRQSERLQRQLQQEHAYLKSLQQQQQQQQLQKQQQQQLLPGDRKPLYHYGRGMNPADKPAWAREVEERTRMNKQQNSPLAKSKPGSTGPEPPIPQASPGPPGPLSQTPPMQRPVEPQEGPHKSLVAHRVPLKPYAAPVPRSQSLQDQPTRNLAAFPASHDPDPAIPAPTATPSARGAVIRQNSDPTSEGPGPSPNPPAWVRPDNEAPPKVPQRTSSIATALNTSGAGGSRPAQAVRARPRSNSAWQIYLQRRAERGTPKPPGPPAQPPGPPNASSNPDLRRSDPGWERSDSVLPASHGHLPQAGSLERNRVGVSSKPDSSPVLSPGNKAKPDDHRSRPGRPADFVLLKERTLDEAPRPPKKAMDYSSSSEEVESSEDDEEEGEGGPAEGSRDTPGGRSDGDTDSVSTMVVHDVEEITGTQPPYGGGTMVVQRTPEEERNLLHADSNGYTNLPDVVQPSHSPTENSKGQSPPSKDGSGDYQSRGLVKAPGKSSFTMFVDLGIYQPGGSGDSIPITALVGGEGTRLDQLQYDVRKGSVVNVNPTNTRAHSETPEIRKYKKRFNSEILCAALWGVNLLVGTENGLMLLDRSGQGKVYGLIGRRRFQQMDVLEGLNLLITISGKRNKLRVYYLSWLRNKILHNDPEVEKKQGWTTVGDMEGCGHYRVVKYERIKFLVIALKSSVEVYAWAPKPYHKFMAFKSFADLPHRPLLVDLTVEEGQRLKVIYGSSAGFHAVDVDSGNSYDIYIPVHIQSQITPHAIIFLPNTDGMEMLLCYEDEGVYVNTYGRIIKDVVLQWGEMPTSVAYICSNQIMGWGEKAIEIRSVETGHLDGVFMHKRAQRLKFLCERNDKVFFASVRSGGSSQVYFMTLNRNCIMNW
Chain of Receptor-type tyrosine-protein kinase FLT3 (Homo sapiens) (P36888 whole entry): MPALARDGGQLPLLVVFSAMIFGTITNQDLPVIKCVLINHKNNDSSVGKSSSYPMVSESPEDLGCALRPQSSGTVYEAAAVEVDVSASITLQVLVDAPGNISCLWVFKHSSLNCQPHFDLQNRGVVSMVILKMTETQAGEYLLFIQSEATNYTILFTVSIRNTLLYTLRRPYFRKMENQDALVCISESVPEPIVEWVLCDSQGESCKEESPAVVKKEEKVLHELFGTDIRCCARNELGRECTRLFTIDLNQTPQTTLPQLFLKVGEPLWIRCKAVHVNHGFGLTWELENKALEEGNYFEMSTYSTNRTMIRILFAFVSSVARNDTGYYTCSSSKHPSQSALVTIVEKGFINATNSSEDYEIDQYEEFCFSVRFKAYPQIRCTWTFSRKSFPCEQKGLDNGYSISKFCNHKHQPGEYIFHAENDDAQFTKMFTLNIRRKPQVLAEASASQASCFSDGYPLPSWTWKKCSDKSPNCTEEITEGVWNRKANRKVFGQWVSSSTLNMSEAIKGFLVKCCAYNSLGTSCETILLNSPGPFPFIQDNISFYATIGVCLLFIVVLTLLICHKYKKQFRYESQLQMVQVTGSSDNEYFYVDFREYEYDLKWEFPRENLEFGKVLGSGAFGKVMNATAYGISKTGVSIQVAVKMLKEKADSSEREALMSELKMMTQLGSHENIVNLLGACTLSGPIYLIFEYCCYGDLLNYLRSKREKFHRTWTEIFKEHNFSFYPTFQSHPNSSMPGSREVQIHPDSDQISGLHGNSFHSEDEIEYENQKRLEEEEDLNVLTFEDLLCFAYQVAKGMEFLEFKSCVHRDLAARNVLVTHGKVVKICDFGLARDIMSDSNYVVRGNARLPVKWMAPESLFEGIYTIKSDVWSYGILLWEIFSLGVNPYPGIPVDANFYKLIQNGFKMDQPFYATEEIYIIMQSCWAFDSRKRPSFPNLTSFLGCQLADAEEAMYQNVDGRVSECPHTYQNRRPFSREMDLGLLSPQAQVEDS
Chain of Dual specificity protein kinase CLK4 (Homo sapiens) (Q9HAZ1 whole entry, looked up): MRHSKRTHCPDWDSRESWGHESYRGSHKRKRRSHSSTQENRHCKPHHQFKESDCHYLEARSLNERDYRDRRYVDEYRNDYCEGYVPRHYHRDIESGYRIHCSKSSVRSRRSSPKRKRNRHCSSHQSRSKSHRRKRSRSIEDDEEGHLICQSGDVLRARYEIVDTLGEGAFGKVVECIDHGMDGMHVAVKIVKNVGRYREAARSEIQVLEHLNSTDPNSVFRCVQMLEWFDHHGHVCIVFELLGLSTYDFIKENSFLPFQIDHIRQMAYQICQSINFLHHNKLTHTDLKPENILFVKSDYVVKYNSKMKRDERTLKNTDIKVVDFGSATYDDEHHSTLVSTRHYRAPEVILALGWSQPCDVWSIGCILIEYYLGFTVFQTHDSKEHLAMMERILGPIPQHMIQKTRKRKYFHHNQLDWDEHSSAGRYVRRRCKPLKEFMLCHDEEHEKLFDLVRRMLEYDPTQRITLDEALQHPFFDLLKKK

Structure (SMILES) | EC50 [1] [µM] | EC50 [2] [µM] | logP [3] | solubility thermodynamic at 20 h [4] [µM] | Drug uptake(free) [6] | half-life [7] [h] | concentration at 168 h [5] [nM] | fraction unbound at 4 h, 5 µM [8] | also measured
CC(=O)Nc1ccc(-c2cc(-c3cccc(C(N)=O)n3)no2)c(O[C@H]2CC[C@@H](O)CC2)n1 | 0.501 | 1 | 4 | 0.2 (≈ 0.0875 µg/mL) | Below_limit_of_detection | 11 | – | – | Ct ([5]; in vivo, other, 168 h, dose 250 µg): Below_limit_of_detection
CN(C)C(=O)CNc1ccc(-c2cc(-c3cccc(C(N)=O)n3)no2)c(O[C@H]2CC[C@@H](O)CC2)n1 | 0.126 | 0.1 | 3 | 2 (≈ 0.961 µg/mL) | 326 nM | 80 | 1210 | 0.27 | –
CN(C)C(=O)c1ccc(-c2cc(-c3cccc(C(N)=O)c3)no2)c(O[C@H]2CC[C@@H](O)CC2)c1 | 0.158 | 0.126 | 2.8 | 10 (≈ 4.5 µg/mL) | – | – | – | – | –
CC(C)CC(=O)Nc1cncc(-c2ccc3[nH]nc(-c4nc5c(-c6cccc(F)c6)cncc5[nH]4)c3c2)c1 [LORECIVIVINT] | – | – | – | – | – | – | – | – | solubility [9]: 0.8 µM (≈ 0.404 µg/mL); logD [10]: > 4.7
CN(C)C(=O)c1ccc(-c2cc(-c3cccc(C(N)=O)c3)no2)c(O[C@H]2CC[C@@H](O)CC2)n1 | 0.2 | 0.251 | 2.8 | 12 (≈ 5.41 µg/mL) | – | – | – | – | –
NC(=O)c1cccc(-c2cc(-c3ccc(N)nc3O[C@H]3CC[C@@H](O)CC3)on2)n1 | 0.0631 | 0.158 | 3.6 | 15 (≈ 5.93 µg/mL) | 11 nM | 21 | 120 | 0.088 | –
CN(C)C(=O)c1ccc(-c2cc(-c3cccc(C(N)=O)n3)no2)c(O[C@H]2CC[C@@H](O)CC2)n1 | 0.126 | 0.0794 | 3 | 2.9 (≈ 1.31 µg/mL) | – | – | – | – | –
COc1ccc(-c2cc(-c3cccc(C(N)=O)n3)no2)c(O[C@H]2CC[C@@H](O)CC2)n1 | 0.126 | 1 | 4.5 | – | – | – | – | – | –
NC(=O)c1cccc(-c2cc(-c3ccc(NCC(=O)N4CCS(=O)(=O)CC4)nc3O[C@H]3CC[C@@H](O)CC3)on2)n1 | 0.251 | 0.631 | 2.4 | 0.13 (≈ 0.0742 µg/mL) | 221 nM | – | 489 | 0.452 | –
CN1Cc2cc(-c3cc(-c4cccc(C(N)=O)c4)no3)c(O[C@H]3CC[C@@H](O)CC3)cc2C1=O | 0.0794 | 0.0794 | 3.3 | 1.8 (≈ 0.805 µg/mL) | 1550 nM | 93 | 9810 | 0.158 | inhibition [11]: 77%; inhibition [12]: 15%; inhibition [13]: 86%; inhibition [14]: 88%; concentration at 168 h [15]: 42000 nM; concentration at 168 h [16]: 631000 nM; inhibition [17]: 97%; inhibition [18]: 100%; inhibition [19]: 88%; Drug uptake [20]: Dose-dependent-effect; concentration at 76 h [21]: ≥ 1000 nM; Drug uptake(free) [22]: 100 nM; Activity [23]: Dose-dependent-effect; Activity [24]: Dose-dependent-effect; Activity [25]: Not active; Less Profound Effect Observed; inhibition [26]: Dose-dependent-effect; inhibition [27]: > 90%
CNc1ccc(-c2cc(-c3cccc(C(N)=O)n3)no2)c(O[C@H]2CC[C@@H](O)CC2)n1 | 0.0631 | 0.126 | > 4.7 | 1 (≈ 0.409 µg/mL) | 35 nM | 168 | 1840 | 0.019 | –
CNC(=O)CNc1ccc(-c2cc(-c3cccc(C(N)=O)n3)no2)c(O[C@H]2CC[C@@H](O)CC2)n1 | 0.0501 | 0.631 | 2.8 | 2.2 (≈ 1.03 µg/mL) | – | – | – | – | –
NC(=O)c1cccc(-c2cc(-c3cccnc3O[C@H]3CC[C@@H](O)CC3)on2)n1 | 0.158 | 0.251 | 3.8 | 4.5 (≈ 1.71 µg/mL) | < 1 nM | 7 | 14 | 0.056 | Activity [28]: Non-toxic; concentration at 168 h [29]: < 100 nM; concentration at 24 h [30]: 1 nM; Drug uptake [31]: Active; Drug uptake [32]: Active; Drug uptake [33]: Active
